Our source for the Activity and inhibition values is ChEMBL document CHEMBL4304775, “Identification and characterization of a novel chemotype for human TLR8 inhibitors” (Eur J Med Chem, 2019).

Activity calls are given as the source filed them. The calls are words filed in the database; no cut-off is given here.

What all share (assay type): cell-based
Data set [1] deals with T1, Toll-like receptor 8 (Homo sapiens) (UniProt Q9NR97).
T1 sequence (whole entry): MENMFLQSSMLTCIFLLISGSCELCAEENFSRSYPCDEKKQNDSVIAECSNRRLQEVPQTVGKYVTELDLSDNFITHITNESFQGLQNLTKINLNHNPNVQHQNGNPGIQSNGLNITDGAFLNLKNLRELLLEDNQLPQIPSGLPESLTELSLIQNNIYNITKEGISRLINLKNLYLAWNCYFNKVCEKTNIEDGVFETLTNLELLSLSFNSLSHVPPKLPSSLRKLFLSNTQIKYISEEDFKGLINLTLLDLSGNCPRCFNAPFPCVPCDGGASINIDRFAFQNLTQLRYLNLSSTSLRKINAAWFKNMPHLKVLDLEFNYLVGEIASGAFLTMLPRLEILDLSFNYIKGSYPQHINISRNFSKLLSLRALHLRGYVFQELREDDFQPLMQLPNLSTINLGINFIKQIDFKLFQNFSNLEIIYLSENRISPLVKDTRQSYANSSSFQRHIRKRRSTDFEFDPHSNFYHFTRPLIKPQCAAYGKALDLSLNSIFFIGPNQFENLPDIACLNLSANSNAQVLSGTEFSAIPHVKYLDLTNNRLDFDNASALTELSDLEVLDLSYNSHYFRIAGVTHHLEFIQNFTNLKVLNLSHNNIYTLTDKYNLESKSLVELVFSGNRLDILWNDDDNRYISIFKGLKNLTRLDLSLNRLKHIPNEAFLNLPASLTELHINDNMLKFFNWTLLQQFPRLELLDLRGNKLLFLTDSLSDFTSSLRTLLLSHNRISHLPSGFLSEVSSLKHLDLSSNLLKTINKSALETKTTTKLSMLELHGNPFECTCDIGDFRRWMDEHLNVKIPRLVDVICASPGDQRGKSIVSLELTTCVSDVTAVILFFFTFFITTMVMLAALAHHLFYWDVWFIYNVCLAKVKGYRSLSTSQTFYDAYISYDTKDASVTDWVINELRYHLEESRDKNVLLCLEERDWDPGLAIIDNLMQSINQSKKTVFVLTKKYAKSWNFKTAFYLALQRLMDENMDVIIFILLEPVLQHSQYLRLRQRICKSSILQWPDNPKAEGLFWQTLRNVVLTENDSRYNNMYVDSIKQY
Kind of data set: Activation of human TLR8 expressed in HEK-Blue cells assessed as increase in NF-kappaB activation at 5 to 25 uM incubated for 24 hrs by quanti-blue SEAP assay.

Data set [2] in a line: Cytotoxicity against human HEK-Blue cells transfected with hTLR8 at 25 to 50 uM after 24 hrs by MTT assay. For orientation: Tetrazolium dyes change colour on reduction, which living cells bring about.
The target of data set [3] is T1, Toll-like receptor 8 (Homo sapiens). Kind of data set: Antagonist activity at human TLR8 expressed in HEK-Blue cells assessed as reduction in CL075-induced NF-kappaB activation at 25 uM incubated for 1 hr followed by CL075-stimulation and measured after 24 hrs by quanti-blue SEAP assay relative to control.
For data set [4], the target named is Toll-like receptor 2 (Homo sapiens) (UniProt O60603). Kind of data set: Antagonist activity at TLR2 in human THP1 cells assessed as inhibition of Pam2CSK4/Pam3CSK4-induced IL-8 secretion preincubated for 1 hr followed by Pam2CSK4/Pam3CSK4 stimulation and measured after 24 hrs by ELISA. The note with it: concentration not given here. Background: An ELISA detects its analyte on a solid surface through an enzyme-linked reagent.
Sequence of Toll-like receptor 2 (Homo sapiens) (O60603 whole entry): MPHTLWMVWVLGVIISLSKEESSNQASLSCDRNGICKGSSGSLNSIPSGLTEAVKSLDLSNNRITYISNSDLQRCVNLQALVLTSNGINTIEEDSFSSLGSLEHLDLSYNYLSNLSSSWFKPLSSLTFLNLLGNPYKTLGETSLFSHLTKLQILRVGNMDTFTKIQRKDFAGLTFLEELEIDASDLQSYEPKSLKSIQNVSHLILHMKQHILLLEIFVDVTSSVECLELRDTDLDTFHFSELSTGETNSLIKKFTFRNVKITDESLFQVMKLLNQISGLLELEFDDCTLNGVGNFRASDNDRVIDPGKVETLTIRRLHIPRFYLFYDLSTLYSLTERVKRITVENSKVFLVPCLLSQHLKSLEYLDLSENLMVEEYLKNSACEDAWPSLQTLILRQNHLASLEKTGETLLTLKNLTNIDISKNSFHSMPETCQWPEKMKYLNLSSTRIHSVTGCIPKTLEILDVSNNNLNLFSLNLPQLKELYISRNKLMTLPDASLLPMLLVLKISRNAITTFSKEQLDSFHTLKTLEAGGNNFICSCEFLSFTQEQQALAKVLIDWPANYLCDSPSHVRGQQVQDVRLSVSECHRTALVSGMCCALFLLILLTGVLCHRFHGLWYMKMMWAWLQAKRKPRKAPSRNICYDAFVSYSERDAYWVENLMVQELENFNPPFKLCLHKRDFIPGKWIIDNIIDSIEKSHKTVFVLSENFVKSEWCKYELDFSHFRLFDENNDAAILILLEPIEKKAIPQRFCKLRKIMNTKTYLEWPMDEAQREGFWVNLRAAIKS

Turning to `C=CCNc1nc(-c2ccco2)cc(C(F)(F)F)n1`, the result in data set [1] was inactive. In addition, the Activity entry in data set [2] is on record as “Non-Toxic”.

Turning to `CCCCC(=O)c1c(C)[nH]c2ccccc12`, the outcome in data set [1] was inactive. Besides, the Activity entry in data set [2] is “Non-Toxic”.

Regarding `CC(C)OC(=O)CSc1nc2ccc[nH]c-2n1`, the result in data set [1] was inactive. Also, in data set [2], the Activity result is reported as “Non-Toxic”.

As to `C=CCNc1nc(C)nc(N2NC(C)=CC2C)n1` (stereo not given), the outcome in data set [1] was inactive. In data set [2], the Activity result is “Non-Toxic”.

For the compound `Cc1[nH]c2ccccc2c1C(=O)C(=O)NCc1ccncc1`, in data set [1], the outcome was inactive. For the same compound, in data set [2], the Activity entry is “Non-Toxic”. Also, the inhibition (commonly the relative decrease from the control value, in per cent) was < 50% in data set [3] and 40% in data set [4].

For `Oc1nc2ccccc2n1Cc1ccccc1`, the outcome in data set [1] was inactive. Also, the Activity entry in data set [2] was “Non-Toxic”.

With `CCOC(=O)c1ccc(NC(=O)C(CC)Sc2nc3ccccc3[nH]2)cc1` (stereo not given), the outcome in data set [1] was inactive. Also, the Activity entry in data set [2] is recorded as “Non-Toxic”. In addition, the inhibition in data set [3] is < 50%.

For `COc1ccc(NC(=O)c2[nH]nc3ccccc23)cn1`, the outcome in data set [1] was inactive. Further, the Activity entry in data set [2] is on record as “Non-Toxic”.

Turning to `CCn1cc(-c2cc(C(F)(F)F)nc(NCc3ccco3)n2)cn1`, the outcome in data set [1] was inactive. For the same compound, in data set [2], the Activity result was “Non-Toxic”.

For the compound `CCCCCCn1c(=O)[nH]c2ccccc21`, in data set [1], the result was inactive. Further, in data set [2], the Activity entry is reported as “Non-Toxic”.

Regarding `CCCSc1nc2ccccc2[nH]1`, the outcome in data set [1] was inactive. In addition, the Activity entry in data set [2] is “Non-Toxic”.
